# Data reported in the RepoRT retention time repository.
# Structures can show the parent of a compound that is named as a salt.
# Assay: RP, Waters CORTECS UPLC C18, 100 × 2.1 mm, 1.6 µm, 40 °C, 0.4 mL/min, estimated dead time 0.55 min; A: water + 0.1% formic acid, pH 3; B: acetonitrile + 0.1% formic acid, pH 3; gradient (min/%B) 0/5 1.12/5 6.41/99.5 10.01/99.5
# Settings: stereoisomer not certain
row,LC retention time,SMILES
1,2.47 min,O=C(O)CCCCC(=O)O [ADIPATE]
2,4.29 min,CCCCCCCCCC[n+]1cccc(S(=O)(=O)[O-])c1 [C10-APS]
3,5.23 min,CCNc1nc(Cl)nc(N(CC)CC)n1 [Trietazin]
4,4.13 min,CC(CCC(=O)O)C1CCC2C3C(=O)CC4CC(=O)CCC4(C)C3CC(=O)C12C (stereo unspecified) [Dehydrocholic acid]
5,3.86 min,NC1=C(Cl)C(=O)c2ccccc2C1=O [Quinoclamine]
6,0.722 min,Nc1cc(C(=O)O)ccc1O [3-AMINO-4-HYDROXYBENZOATE]
7,4.88 min,CC(CC(=O)O)C1CCC2C3CCC4CC(O)CCC4(C)C3CC(O)C12C (stereo unspecified) [Nor-Desoxycholic Acid]
8,3.94 min,O=C(O)CCCc1c[nH]c2ccccc12 [Indole-3-butyric acid]
9,5.89 min,CCCCCCCCCCCCCCCCCC(=O)OC(CC(=O)[O-])C[N+](C)(C)C [Stearoyl-L-carnitine]
10,2.31 min,CCCCC[n+]1cccc(S(=O)(=O)[O-])c1 [C5-APS]
11,6.34 min,CCCCCCCCCCCCCCCCC[n+]1cccc(S(=O)(=O)[O-])c1 [C17-APS]
12,4.62 min,C=CCCCCCCCC(=O)O [9-Decenoic acid]
13,2.15 min,O=C(O)c1cc(=O)c2cccc(O)c2[nH]1 [XANTHURENATE]
14,2.89 min,NC(=O)Cc1c[nH]c2ccccc12 [INDOLE-3-ACETAMIDE]
15,4.16 min,COc1cc(OC)nc(NC(=O)NS(=O)(=O)N(C)S(C)(=O)=O)n1 [Amidosulfuron]
16,3.39 min,CC1C(=O)Nc2ccccc21 (stereo unspecified) [3-METHYL-2-OXINDOLE]
17,4.18 min,CC(CCC(=O)NCCS(=O)(=O)O)C1CCC2C3C(O)CC4CC(O)CCC4(C)C3CCC12C (stereo unspecified) [Tauroursodeoxycholic acid]
18,3.97 min,NC(Cc1cc(I)c(Oc2cc(I)c(O)c(I)c2)c(I)c1)C(=O)O (stereo unspecified) [THYROXINE]
19,2.47 min,O=C(O)Cc1c[nH]c2ccc(O)cc12 [5-HYDROXYINDOLEACETATE]
20,2.22 min,CC=C(C)C(=O)NCC(=O)O [Tiglyl Glycine]
21,0.763 min,"O=C(O)c1cccnc1C(=O)O [2,3-Pyridinedicarboxylic acid]"
22,7 min,CCCCCCCCCCCCCCCCCCCC[n+]1cccc(S(=O)(=O)[O-])c1 [C20-APS]

row,LC retention time,SMILES
1,0.798 min,O=CC(O)C(O)C(O)CO (stereo unspecified) [ARABINOSE]
2,4.08 min,CC(CCC(=O)NCC(=O)O)C1CCC2C3CC(O)C4CC(O)CCC4(C)C3CCC12C (stereo unspecified) [Glycohyodeoxycholic acid]
3,3.26 min,Cc1cc2nc3[nH]c(=O)[nH]c(=O)c3nc2cc1C [LUMICHROME]
4,7.4 min,CC(C)CCC[C@@H](C)[C@H]1CC[C@H]2[C@@H]3[C@H](O)CC4=CC(=O)CC[C@]4(C)[C@H]3CC[C@]12C [7α-Hydroxy-4-cholesten-3-one]
5,4.24 min,COC(=O)c1ccc(CNS(C)(=O)=O)cc1S(=O)(=O)NC(=O)Nc1nc(OC)cc(OC)n1 [Mesosulfuron-methyl]
6,3.13 min,CCS(=O)(=O)c1nnc(N(C)C(=O)NC)s1 [Sulfadiazole]
7,5.63 min,CCCCCCCCC=CCCCCCCCC(=O)OC(CC(=O)[O-])C[N+](C)(C)C [Oleoyl-L-carnitine]
8,0.768 min,Cc1ncc(CO)c(C(=O)O)c1O [4-PYRIDOXATE]
9,2.15 min,Cn1c(=O)[nH]c2ncn(C)c2c1=O [PARAXANTHINE]
10,5.53 min,CC(CCCC(C)C1CCC2C3C(O)CC4=CC(=O)CCC4(C)C3CCC12C)C(=O)O (stereo unspecified) [7-Hydroxy-3-oxo-Cholest-4-en-26-oic Acid]
11,5.25 min,CNC(=O)C(=NOC)c1ccccc1COc1cc(C)ccc1C [Dimoxystrobin]
12,4.84 min,CN(C)C(=O)Nc1ccc(Oc2ccc(Cl)cc2)cc1 [Chloroxuron]
13,5.35 min,CCCCCC=CCC=CCC=CCC=CCCCC(=O)OC(CC(=O)[O-])C[N+](C)(C)C [Arachidonyl-L-carnitine]
14,4.96 min,CCCCCCCCCCCC=CC(=O)OC(CC(=O)[O-])C[N+](C)(C)C [trans-2-Tetradecenoyl-L-carnitine]
15,6.25 min,Cc1nn(C)c(Oc2ccccc2)c1C=NOCc1ccc(C(=O)OC(C)(C)C)cc1 [Fenpyroximate]
16,3.05 min,CCCCCC(=O)OC(CC(=O)[O-])C[N+](C)(C)C [Hexanoyl-L-carnitine]
17,5.38 min,"CCCCCC=CCC=CCCCCCCCC(=O)OC(CC(=O)[O-])C[N+](C)(C)C [cis,cis-9,12-Octadecadienoyl-L-carnitine]"
18,2.7 min,O=C(O)CCCCC1SCC2NC(=O)NC21 (stereo unspecified) [BIOTIN]
19,3.74 min,CC(CCC(=O)NCCS(=O)(=O)O)C1CCC2C3C(O)CC4CC(O)CCC4(C)C3CC(O)C12C (stereo unspecified) [Taurocholic acid sodium salt hydrate]
20,5.93 min,O=C(Nc1ccc(F)cc1)c1cccc(Oc2cccc(C(F)(F)F)c2)n1 [Picolinafen]
21,1.08 min,"O=C(O)c1ccc(C(=O)O)o1 [2,5-Furandicarboxylic acid]"
22,7.48 min,CC(C)CCCC(C)C1CCC2C3=CC=C4CC(O)CCC4(C)C3CCC21C (stereo unspecified) [7-dehydrocholesterol]

row,SMILES,LC retention time
1,O=C(Nc1ccccc1)Nc1cnns1 [Thidiazuron],3.74 min
2,O=C(NC(=O)c1c(F)cccc1F)Nc1ccc(Cl)cc1 [Diflubenzuron],5.11 min
3,CCCN(CCOc1c(Cl)cc(Cl)cc1Cl)C(=O)n1ccnc1 [Prochloraz],4.73 min
4,COP(=S)(OC)Oc1nc(Cl)c(Cl)cc1Cl [Chlorpyriphos-methyl],5.73 min
5,CCOP(=S)(OCC)SCSP(=S)(OCC)OCC [Ethion],6.19 min
6,CCCN(CC)CC1COC2(CCC(C(C)(C)C)CC2)O1 (stereo unspecified) [Spiroxamine],4.29 min
7,Cc1cc(C)nc(Nc2ccccc2)n1 [Pyrimethanil],4.13 min
8,COC(=O)C(C)N(C(=O)Cc1ccccc1)c1c(C)cccc1C (stereo unspecified) [Benalaxyl],5.46 min
9,CCCCc1c(C)nc(NCC)[nH]c1=O [Ethirimol],3.01 min
10,Cc1cc(C)nc(NC(=O)NS(=O)(=O)c2ccccc2C(=O)OC2COC2)n1 [Oxasulfuron],3.85 min
11,COC(=O)N(C(=O)N1COC2(C(=O)OC)Cc3cc(Cl)ccc3C2=N1)c1ccc(OC(F)(F)F)cc1 (stereo unspecified) [Indoxacarb],5.75 min
12,CCCC1COC(Cn2cncn2)(c2ccc(Cl)cc2Cl)O1 (stereo unspecified) [Propioconazole],5.3 min
13,Cc1nc(N(C)C)nc(OC(=O)N(C)C)c1C [Pirimicarb],3.06 min
14,CCCOCC(=Nc1ccc(Cl)cc1C(F)(F)F)n1ccnc1 [Triflumizol],5.16 min
15,C#CCOc1ccc(CCNC(=O)C(OCC#C)c2ccc(Cl)cc2)cc1OC (stereo unspecified) [Mandipropamid],4.95 min
16,Clc1ccc(C2(Cn3cncn3)OCCO2)c(Cl)c1 [Azaconazole],4.32 min
17,Nc1cnn(-c2ccccc2)c(=O)c1Cl [Chloridazon],3.17 min
18,CSC(C)=NOC(=O)N(C)SN(C)C(=O)ON=C(C)SC [Thiodicarb],4 min
19,O=C(NC(=O)c1c(F)cccc1F)Nc1cc(Cl)c(F)c(Cl)c1F [Teflubenzuron],5.7 min
20,CNC(=O)CSP(=S)(OC)OC [Dimethoate],3.27 min
21,CCON=C(CC)C1=C(O)CC(c2c(C)cc(C)cc2C)CC1=O (stereo unspecified) [Tralkoxidym],6.22 min

row,SMILES,LC retention time
1,COP(=O)(OC)SCn1c(=O)oc2cc(Cl)cnc21 [Azamethiphos],3.91 min
2,CSC1=NC(C)(c2ccccc2)C(=O)N1Nc1ccccc1 (stereo unspecified) [Fenamidone],4.96 min
3,Cc1cccc(C)c1N(Cn1cccn1)C(=O)CCl [Metazachlor],4.52 min
4,COc1nc(NC(C)C)nc(NC(C)C)n1 [Prometon],3.54 min
5,O=C(NC(=O)c1c(F)cccc1F)Nc1cc(Cl)c(OC(F)(F)C(F)C(F)(F)F)cc1Cl (stereo unspecified) [Lufenuron],5.91 min
6,O=C/C=C/c1ccccc1 [TRANS-CINNAMALDEHYDE],5 min
7,Clc1ccccc1-c1nnc(-c2ccccc2Cl)nn1 [Clofentezine],5.65 min
8,CNC(=O)c1cc(Cl)cc(C)c1NC(=O)c1cc(Br)nn1-c1ncccc1Cl [Chlorantraniliprole],4.63 min
9,CCC(CC)Nc1c([N+](=O)[O-])cc(C)c(C)c1[N+](=O)[O-] [Pendimethalin (Penoxalin)],5.42 min
10,CC(C)(C)C(=O)C(Oc1ccc(Cl)cc1)n1cncn1 (stereo unspecified) [Triadimefon],4.95 min
11,CCCCN(CCCC)SN(C)C(=O)Oc1cccc2c1OC(C)(C)C2 [Carbosulfan],6.87 min
12,CC(=NC#N)N(C)Cc1ccc(Cl)nc1 [Acetamiprid],3.33 min
13,CCCCc1c(C)nc(NCC)nc1OS(=O)(=O)N(C)C [Bupirimate],3.29 min
14,CC(Cc1ccc(C(C)(C)C)cc1)CN1CCCCC1 (stereo unspecified) [Fenpropidine],4.27 min
15,NCCc1c[nH]c2ccccc12 [TRYPTAMINE],2.43 min
16,COCC(=O)N(c1c(C)cccc1C)C(C)C(=O)OC (stereo unspecified) [Metalaxyl],4.33 min
17,CC1(C)CN=C(NN=C(C=Cc2ccc(C(F)(F)F)cc2)C=Cc2ccc(C(F)(F)F)cc2)NC1 [Hydramethylnon (Amdro)],5.14 min
18,CC1=C(C(=O)Nc2ccccc2)SCCO1 [Carboxin],4.3 min
19,CNC(=O)C=C(C)OP(=O)(OC)OC [Monocrotophos],2.65 min
20,COCC(=O)N(c1c(C)cccc1C)N1CCOC1=O [Oxadixyl],3.8 min
21,COC(=O)N(OC)c1ccccc1COc1ccn(-c2ccc(Cl)cc2)n1 [Pyraclostrobin],5.6 min
